Test results reported in PubChem BioAssay (NCI).
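GI50 = concentration required for 50% inhibition of growth. Definition used: TGI = concentration required for complete inhibition of growth.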

What was measured:
Assay in all cases: growth of human tumour cells (NCI), 384-well format
A549 NSCLC = system: A549 NSCLC
RPMI-8226 leukemia = system: RPMI-8226 leukemia
PC-3 prostate = system: PC-3 prostate
MCF7 breast = system: MCF7 breast
MALME-3M melanoma = system: MALME-3M melanoma
NCI-H226 lung = system: NCI-H226 lung
NCI-H522 lung = system: NCI-H522 lung
SF-268 CNS = system: SF-268 CNS
NCI-H322M lung = system: NCI-H322M lung
HCC-2998 colon = system: HCC-2998 colon
SNB-75 CNS = system: SNB-75 CNS
HS 578T breast = system: HS 578T breast
HCT-116 colon = system: HCT-116 colon
MDA-MB-231 breast = system: MDA-MB-231 breast
SNB-19 CNS = system: SNB-19 CNS
LOX IMVI melanoma = system: LOX IMVI melanoma
U251 glioblastoma = system: U251 glioblastoma
DU-145 prostate = system: DU-145 prostate
HL-60(TB) leukemia = system: HL-60(TB) leukemia
HT29 colon = system: HT29 colon
A498 renal = system: A498 renal
OVCAR-4 ovarian = system: OVCAR-4 ovarian
ACHN renal = system: ACHN renal
BT-549 breast = system: BT-549 breast
HOP-62 NSCLC = system: HOP-62 NSCLC
OVCAR-8 ovarian = system: OVCAR-8 ovarian
NCI/ADR-RES ovarian = system: NCI/ADR-RES ovarian
OVCAR-5 ovarian = system: OVCAR-5 ovarian
EKVX NSCLC = system: EKVX NSCLC

COc1cc(Nc2c(C#N)cnc3cc(OCCCN4CCN(C)CC4)c(OC)cc23)c(Cl)cc1Cl
GI50 (A549 NSCLC): 1600 nM
TGI (A549 NSCLC): 4.64 µM
GI50 (RPMI-8226 leukemia): 898 nM
TGI (RPMI-8226 leukemia): 2350 nM
GI50 (PC-3 prostate): 2580 nM
TGI (PC-3 prostate): 7.12 µM
GI50 (MCF7 breast): 2400 nM
TGI (MCF7 breast): 5.38 µM
GI50 (MALME-3M melanoma): 1040 nM
TGI (MALME-3M melanoma): 2470 nM
GI50 (NCI-H226 lung): 2770 nM
TGI (NCI-H226 lung): 6.25 µM
GI50 (NCI-H522 lung): 133 nM
TGI (NCI-H522 lung): 2780 nM
GI50 (SF-268 CNS): 1850 nM
TGI (SF-268 CNS): 5.52 µM
GI50 (NCI-H322M lung): 423 nM
TGI (NCI-H322M lung): 2360 nM
GI50 (HCC-2998 colon): 2200 nM
TGI (HCC-2998 colon): 4.35 µM
GI50 (SNB-75 CNS): 951 nM
TGI (SNB-75 CNS): 3.32 µM
GI50 (HS 578T breast): 1290 nM
TGI (HS 578T breast): 4.24 µM
GI50 (HCT-116 colon): 1150 nM
TGI (HCT-116 colon): 2570 nM
GI50 (MDA-MB-231 breast): 1410 nM
TGI (MDA-MB-231 breast): 2760 nM
GI50 (SNB-19 CNS): 3.51 µM
TGI (SNB-19 CNS): 9.26 µM
GI50 (LOX IMVI melanoma): 637 nM
TGI (LOX IMVI melanoma): 2130 nM
GI50 (U251 glioblastoma): 2100 nM
TGI (U251 glioblastoma): 4.7 µM
GI50 (DU-145 prostate): 645 nM
TGI (DU-145 prostate): 2850 nM
GI50 (HL-60(TB) leukemia): 1390 nM
TGI (HL-60(TB) leukemia): 2720 nM
GI50 (HT29 colon): 1430 nM
TGI (HT29 colon): 3.59 µM
GI50 (A498 renal): 806 nM
TGI (A498 renal): 3.61 µM
GI50 (OVCAR-4 ovarian): 1850 nM
TGI (OVCAR-4 ovarian): 4.18 µM
GI50 (ACHN renal): 443 nM
TGI (ACHN renal): 4.05 µM
GI50 (BT-549 breast): 1210 nM
TGI (BT-549 breast): 3.31 µM
GI50 (HOP-62 NSCLC): 1690 nM
TGI (HOP-62 NSCLC): 5.02 µM
GI50 (OVCAR-8 ovarian): 1940 nM
TGI (OVCAR-8 ovarian): 5.02 µM
GI50 (NCI/ADR-RES ovarian): 2140 nM
TGI (NCI/ADR-RES ovarian): 4.66 µM
GI50 (OVCAR-5 ovarian): 1840 nM
TGI (OVCAR-5 ovarian): 6.66 µM
GI50 (EKVX NSCLC): 1570 nM
TGI (EKVX NSCLC): 5.85 µM
